From patent publication US8362023B2, “Pyrazolo pyrimidines” (Hoffmann-La Roche Inc., priority 2011, dated 2013)
Counter-ions that a name gives are not always drawn.

How the values were obtained:
[1] = target: T1, Human DYRK1B (Homo sapiens, UniProt Q9Y463); test: DYRK1B Kinase TR-FRET (IMAP-Tb) Assay; assay type: biochemical; conditions: for inhibition at 10 µM: at 10 μM test compound concentration, where the IC50 was not determined; for IC50: TR-FRET (IMAP-Tb), ATP 70 μM, 37° C. for 60 minutes, averages of multiple runs, read-out: Enzyme IC50 (μM) DYRK1B
T1 construct: purchased Invitrogen PR8350B (former PV4649)
T1 sequence (Q9Y463 whole entry): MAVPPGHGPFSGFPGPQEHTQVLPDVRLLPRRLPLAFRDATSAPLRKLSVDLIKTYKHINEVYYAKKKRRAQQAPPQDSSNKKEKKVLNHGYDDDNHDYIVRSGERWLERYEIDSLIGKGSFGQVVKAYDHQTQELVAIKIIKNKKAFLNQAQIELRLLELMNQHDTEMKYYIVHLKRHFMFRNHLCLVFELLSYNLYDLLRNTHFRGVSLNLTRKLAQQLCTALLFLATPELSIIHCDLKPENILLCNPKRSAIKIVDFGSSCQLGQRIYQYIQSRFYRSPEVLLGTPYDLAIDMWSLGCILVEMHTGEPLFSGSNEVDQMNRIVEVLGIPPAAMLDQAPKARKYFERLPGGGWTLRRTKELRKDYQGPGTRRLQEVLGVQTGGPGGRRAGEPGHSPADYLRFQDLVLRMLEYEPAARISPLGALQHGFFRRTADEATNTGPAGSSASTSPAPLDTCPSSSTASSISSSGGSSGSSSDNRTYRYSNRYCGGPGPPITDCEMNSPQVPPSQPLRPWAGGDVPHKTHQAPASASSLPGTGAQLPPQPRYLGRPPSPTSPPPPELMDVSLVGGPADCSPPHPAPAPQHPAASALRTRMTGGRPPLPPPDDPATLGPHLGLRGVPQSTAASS
Description: DYRK1B Kinase TR-FRET (IMAP-Tb) Assay Assay Principle The kinase TR-FRET (IMAP-Tb) assay uses a fluorescence labeled substrate peptide in the kinase reaction. Upon phosphorylation by the kinase, phosphopeptide is produced, which will be detected by the binding solution provided in IMAP TR-FRET binding kit. After the completion of the kinase reaction, the reaction will be stopped by adding the binding solution containing terbium tracer. This tracer is immobilized on the surface of the IMAP beads, which also contain metal ions on the beads that bind to the phospho-groups of the products. Thus the phosphorylated product of the reaction can enter into close proximity to the tracer, producing resonance energy transfer. Due to the long lifetime of terbium (Tb) fluorescence the detection can be run in time resolved mode, which virtually eliminates fluorescence interference from assay components or compounds. The TR-FRET signal measurement from this assay, given as an IC50 measurement, is a measure of a test compound's ability to interfere with the phosphorylation of the peptide substrate, that is it inhibits the phosphorylation of the substrate peptide by DYRK1B, and is thus a measure of the test compound's ability to inhibit the activity of DYRK1B. IC50 is the amount of test compound that inhibits 50% of the activity of DYRK1B in this assay. In some cases where the IC50 was not determined, then the % inhibition at 10 μM test compound concentration may be reported. Materials and Reagents • 1. Human DYRK1B: from Invitrogen. Part #PR8350B (former PV4649) • 2. Substrate Peptide: in-house synthesized: RRRFRPASPLRGPPK • 3. IMAP TR-FRET IPP Explorer Kit: from Molecular Devices. Part #R8157 • 4. Kinase Assay Buffer (KAB): 10 mM HEPES pH 7.0, 50 mM NaCl, 5 mM MgCl2, 1 mM DTT, 1 mM NaVO4, 200 μg/mL BSA (0.02%) • 5. Assay Plate: Remp polypropylene clear 384-well microplate. Cat#23490-102 • 6. Detection Plate: Costa black 384-well microplate. Cat #3710 Assay Procedure: this Assay was Performed as Follows: • 1. Transfer 1.5 μL of 20× compound solution to each well of an assay plate. • 2. Add to each well 22.5 μL of KAB Buffer. • 3. Add to each well 3 μL of the solution of DYRK1B and ATP. […] Add to each well 3 μL of the substrate peptide. The assay concentration is 1.0 μM • 5. Incubate the assay plates at 37° C. for 60 minutes. • 6. Add 18 μL of Detection Solution (1:800 diluted Progress bead stock, 1:400 diluted Tb stock, 80% Buffer A, and 20% Buffer B) into each well of detection plates. • 7. Transfer 6 μL of assay solution from the assay plate to the detection plate. • 8. Shake detection plates for 30 minutes. • 9. Read plates in Envision with wavelength set at excitation 340 nm for Tb, emission 490 nm, and […] 520 nm. • 10. Calculation: TR-FRET Signal=(Reading at […]/Reading at 490 nM)×2000000

[2] = target: T2, Human DYRK1A (Homo sapiens, UniProt Q13627); test: DYRK1A Kinase TR-FRET (IMAP-Tb) Assay; assay type: biochemical; conditions: for IC50: TR-FRET (IMAP-Tb), ATP 70 μM, 37° C. for 60 minutes, averages of multiple runs, read-out: Enzyme IC50 (μM) DYRK1A
T2 construct: purchased Invitrogen PV3997
Description: DYRK1A Kinase TR-FRET (IMAP-Tb) Assay
The kinase TR-FRET (IMAP-Tb) assay uses a fluorescence labeled substrate peptide in the kinase reaction. Upon phosphorylation by the kinase, phosphopeptide is produced, which will be detected by the binding solution provided in IMAP TR-FRET binding kit. After the completion of the kinase reaction, the reaction will be stopped by adding the binding solution containing terbium tracer. This tracer is immobilized on the surface of the IMAP beads, which also contain metal ions on the beads that bind to the phospho-groups of the products. Thus the phosphorylated product of the reaction can enter into close proximity to the tracer, producing resonance energy transfer. Due to the long lifetime of terbium (Tb) fluorescence the detection can be run in time resolved mode, which virtually eliminates fluorescence interference from assay components or compounds.
The TR-FRET signal measurement from this assay, given as an IC50 measurement, is a measure of a test compound's ability to interfere with the phosphorylation of the peptide substrate, that is it inhibits the phosphorylation of the substrate peptide by DYRK1A, and is thus a measure of the test compound's ability to inhibit the activity of DYRK1A.
Materials and Reagents • 1. Human DYRK1A: from Invitrogen. Part #PV3997 • 2. Substrate Peptide: […] • 3. IMAP TR-FRET IPP Explorer Kit: from Molecular Devices. Part #R8157 • 4. Kinase Assay Buffer (KAB): 10 mM HEPES pH 7.0, 50 mM NaCl, 5 mM MgCl2, 1 mM DTT, 1 mM NaVO4, 200 ug/mL BSA (0.02%) • 5. Assay Plate: Remp polypropylene clear 384-well microplate. […] Detection Plate: Costa black 384-well microplate.
Assay Procedure: this Assay was Performed as Follows: • 1. Transfer 1.5 μL of 20× compound solution to each well of an assay plate. • 2. Add to each well 22.5 μL of KAB Buffer. • 3. Add to each well 3 μL of the solution of DYRK1A and ATP. […] Add to each well 3 μL of the substrate peptide. The assay concentration is 1.0 μM • 5. Incubate the assay plates at 37° C. for 60 minutes. • 6. Add 18 μL of Detection Solution (1:800 diluted Progress bead stock, 1:400 diluted Tb stock, 80% Buffer A, and 20% Buffer B) into each well of detection plates. • 7. Transfer 6 μL of assay solution from the assay plate to the detection plate. • 8. Shake detection plates for 30 minutes. • 9. Read plates in Envision with wavelength set at excitation 340 nm for Tb, emission 490 nm, and […] 520 nm. • 10.

SMILES | inhibition at 10 µM [1] | IC50 [2] | IC50 [1] | inhibition at 10 µM ([2]; at 10 μM test compound concentration, where the IC50 was not determined)
c1ccc(CNc2cccc(-c3n[nH]c4nc(NCCN5CCCCC5)ncc34)n2)cc1 [Example 44, [3-(6-Benzylamino-pyridin-2-yl)-1H-pyrazolo[3,4-d]pyrimidin-6-yl]-(2-piperidin-1-yl-ethyl)-amine] | 32% | 3.96 µM |  | 
c1ccc(CNc2cccc(-c3n[nH]c4nc(NCCN5CCOCC5)ncc34)n2)cc1 [Example 45, [3-(6-Benzylamino-pyridin-2-yl)-1H-pyrazolo[3,4-d]pyrimidin-6-yl]-(2-morpholin-4-yl-ethyl)-amine] |  | 2.31 µM | 4.58 µM | 
c1ccc(CNc2cccc(-c3n[nH]c4nc(NCCN5CCOCC5)ncc34)c2)cc1 [Example 46, [3-(3-Benzylamino-phenyl)-1H-pyrazolo[3,4-d]pyrimidin-6-yl]-(2-morpholin-4-yl-ethyl)-amine] | 43% |  |  | 55%
Clc1ccc(CNc2cccc(-c3n[nH]c4nc(NCCN5CCOCC5)ncc34)n2)cc1 [Example 48, {3-[6-(4-Chloro-benzylamino)-pyridin-2-yl]-1H-pyrazolo[3,4-d]pyrimidin-6-yl}-(2-morpholin-4-yl-ethyl)-amine] |  | 2.96 µM | 2.92 µM | 
Clc1ccc(CNc2cccc(-c3n[nH]c4nc(NCCN5CCOCC5)ncc34)c2)cc1 [Example 50, {3-[3-(4-Chloro-benzylamino)-phenyl]-1H-pyrazolo[3,4-d]pyrimidin-6-yl}-(2-morpholin-4-yl-ethyl)-amine] |  | 4.91 µM | > 10 µM | 
c1cc(NCc2ccsc2)cc(-c2n[nH]c3nc(NCCN4CCOCC4)ncc23)c1 [Example 51, (2-Morpholin-4-yl-ethyl)-(3-{3-[(thiophen-3-ylmethyl)-amino]-phenyl}-1H-pyrazolo[3,4-d]pyrimidin-6-yl)-amine] |  | 9.02 µM | > 10 µM | 
N[C@H]1CC[C@H](Nc2ncc3c(-c4cccc(NCc5ccsc5)n4)n[nH]c3n2)CC1 [Example 65, N-(3-{6-[(Thiophen-3-ylmethyl)-amino]-pyridin-2-yl}-1H-pyrazolo[3,4-d]pyrimidin-6-yl)-cyclohexane-1,4-diamine; hydrochloride] |  | 0.021 µM | < 0.005 µM | 
NCC(Nc1nccc(-c2n[nH]c3nc(N[C@H]4CC[C@H](N)CC4)ncc23)n1)c1ccccc1 (stereo partly drawn) [Example 67, N-{3-[2-(2-Amino-1-phenyl-ethylamino)-pyrimidin-4-yl]-1H-pyrazolo[3,4-d]pyrimidin-6-yl}-cyclohexane-1,4-diamine; hydrochloride] |  | 0.0046 µM | 0.00517 µM | 
NCCC(Nc1nccc(-c2n[nH]c3nc(N[C@H]4CC[C@H](N)CC4)ncc23)n1)c1ccccc1 (stereo partly drawn) [Example 68, N-{3-[2-(3-Amino-1-phenyl-propylamino)-pyrimidin-4-yl]-1H-pyrazolo[3,4-d]pyrimidin-6-yl}-cyclohexane-1,4-diamine; hydrochloride] |  | 0.011 µM | 0.011 µM | 
NCCC(Nc1cccc(-c2n[nH]c3nc(NCCN4CCOCC4)ncc23)c1)c1ccccc1 (stereo not drawn) [Example 73, N1-{3-[6-(2-Morpholin-4-yl-ethylamino)-1H-pyrazolo[3,4-d]pyrimidin-3-yl]-phenyl}-1-phenyl-propane-1,3-diamine; hydrochloride] |  | 4.88 µM | 9.59 µM | 
NCCC(Nc1cccc(-c2n[nH]c3nc(NCCN4CCOCC4)ncc23)n1)c1ccccc1 (stereo not drawn) [Example 75, N1-{6-[6-(2-Morpholin-4-yl-ethylamino)-1H-pyrazolo[3,4-d]pyrimidin-3-yl]-pyridin-2-yl}-1-phenyl-propane-1,3-diamine; hydrochloride] |  | 2.58 µM | 2.73 µM | 
N[C@H]1CC[C@H](Nc2ncc3c(-c4ccnc(NCc5cccc(C(F)(F)F)c5)n4)n[nH]c3n2)CC1 [Example 84, N-{3-[2-(3-Trifluoromethyl-benzylamino)-pyrimidin-4-yl]-1H-pyrazolo[3,4-d]pyrimidin-6-yl}-cyclohexane-1,4-diamine; hydrochloride] |  | 0.005 µM | 0.007 µM | 
N[C@H]1CC[C@H](Nc2ncc3c(-c4ccnc(NCc5cccc(F)c5)n4)n[nH]c3n2)CC1 [Example 85, N-{3-[2-(3-Fluoro-benzylamino)-pyrimidin-4-yl]-1H-pyrazolo[3,4-d]pyrimidin-6-yl}-cyclohexane-1,4-diamine; hydrochloride] |  | 0.0046 µM | < 0.0046 µM | 
Clc1cccc(CNc2nccc(-c3n[nH]c4nc(NC5CCNCC5)ncc34)n2)c1 [Example 86, {3-[2-(3-Chloro-benzylamino)-pyrimidin-4-yl]-1H-pyrazolo[3,4-d]pyrimidin-6-yl}-piperidin-4-yl-amine; hydrochloride] |  | 0.047 µM | 0.078 µM | 
CN(C)CCNc1ncc2c(-c3ccnc(NCc4cccc(Cl)c4)n3)n[nH]c2n1 [Example 87, N-{3-[2-(3-Chloro-benzylamino)-pyrimidin-4-yl]-1H-pyrazolo[3,4-d]pyrimidin-6-yl}-N′,N′-dimethyl-ethane-1,2-diamine; hydrochloride] |  | 0.31 µM | 0.69 µM | 
Clc1cccc(CNc2nccc(-c3n[nH]c4nc(NCC5CCNCC5)ncc34)n2)c1 [Example 88, {3-[2-(3-Chloro-benzylamino)-pyrimidin-4-yl]-1H-pyrazolo[3,4-d]pyrimidin-6-yl}-piperidin-4-ylmethyl-amine; hydrochloride] |  | 0.0089 µM | 0.016 µM | 
N[C@H]1CC[C@@H](Nc2ncc3c(-c4ccnc(NCc5cccc(Cl)c5)n4)n[nH]c3n2)CC1 [Example 89, N-{3-[2-(3-Chloro-benzylamino)-pyrimidin-4-yl]-1H-pyrazolo[3,4-d]pyrimidin-6-yl}-cyclohexane-1,4-diamine; hydrochloride] |  | 0.415 µM | 0.186 µM | 
Clc1cccc(CNc2nccc(-c3n[nH]c4nc(NCCN5CCCC5)ncc34)n2)c1 [Example 90, {3-[2-(3-Chloro-benzylamino)-pyrimidin-4-yl]-1H-pyrazolo[3,4-d]pyrimidin-6-yl}-(2-pyrrolidin-1-yl-ethyl)-amine; hydrochloride] |  | 0.536 µM | 1.32 µM | 
